Here are results for 16 compounds from ChEMBL document CHEMBL2062407, “Synthesis of N²-modified 7-methylguanosine 5'-monophosphates as nematode translation inhibitors” (Bioorg Med Chem, 2012).

Assay [1] in a line: Inhibition of Ascaris suum eIF4E-3 assessed as inhibition of cap-dependent translation after 1 hr by cell-free Renilla luciferase reporter gene assay. In general terms: A reporter such as luciferase makes a cellular process visible.
In assay [2] the test system is Ascaris suum. Nature of the assay: Ratio of m7GTP IC50 to compound IC50 for Ascaris suum eIF4E-3 assessed as inhibition of cap-dependent translation after 1 hr by cell-free Renilla luciferase reporter gene assay.

Bounds are passed on as bounds.

As usually defined, the IC50 is the midpoint of a concentration-inhibition curve.

In the case of `CC(C)CNc1nc2c(c(=O)[nH]1)[n+](C)cn2[C@@H]1O[C@H](COP(=O)([O-])O)[C@@H](O)[C@H]1O`, the IC50 in assay [1] came to 4.5 µM.

Take `CCCCNc1nc2c(c(=O)[nH]1)[n+](C)cn2[C@@H]1O[C@H](COP(=O)([O-])O)[C@@H](O)[C@H]1O`: the IC50 in assay [1] was 3.9 µM.

With `C[n+]1cn([C@@H]2O[C@H](COP(=O)([O-])O)[C@@H](O)[C@H]2O)c2nc(N)[nH]c(=O)c21`, in assay [1], the IC50 is > 50 µM.

`C[n+]1cn([C@@H]2O[C@H](COP(=O)([O-])O)[C@@H](O)[C@H]2O)c2nc(N(Cc3ccccc3)Cc3ccccc3)[nH]c(=O)c21`: the IC50 in assay [1] was > 50 µM.

Regarding `CCN(C)c1nc2c(c(=O)[nH]1)[n+](C)cn2[C@@H]1O[C@H](COP(=O)([O-])O)[C@@H](O)[C@H]1O`, in assay [1], the IC50 was found to be 13.9 µM.

`C[n+]1cn([C@@H]2O[C@H](COP(=O)([O-])O)[C@@H](O)[C@H]2O)c2nc(NCC3CCCCC3)[nH]c(=O)c21`: the IC50 in assay [1] was found to be 5.7 µM.

As for `C[n+]1cn([C@@H]2O[C@H](COP(=O)([O-])O)[C@@H](O)[C@H]2O)c2nc(NCc3ccccc3)[nH]c(=O)c21`, in assay [1], the IC50 is 2.9 µM.

For the compound `C[n+]1cn([C@@H]2O[C@H](COP(=O)([O-])O)[C@@H](O)[C@H]2O)c2nc(NCc3ccc(Cl)cc3)[nH]c(=O)c21`, the IC50 in assay [1] amounted to 3.8 µM.

`CC(C)CN(C)c1nc2c(c(=O)[nH]1)[n+](C)cn2[C@@H]1O[C@H](COP(=O)([O-])O)[C@@H](O)[C@H]1O`: the IC50 in assay [1] was > 50 µM.

Consider `C[n+]1cn([C@@H]2O[C@H](COP(=O)([O-])O)[C@@H](O)[C@H]2O)c2nc(NCc3ccc(-c4ccccc4)cc3)[nH]c(=O)c21`, for which, in assay [1], the IC50 was 4.3 µM.

On to `C[n+]1cn([C@@H]2O[C@H](COP(=O)([O-])OP(=O)(O)OP(=O)(O)O)[C@@H](O)[C@H]2O)c2nc(N)[nH]c(=O)c21`, for which the IC50 in assay [1] is 6.1 µM.

As for `CCCCN(C)c1nc2c(c(=O)[nH]1)[n+](C)cn2[C@@H]1O[C@H](COP(=O)([O-])O)[C@@H](O)[C@H]1O`, in assay [1], the IC50 is > 50 µM.

Consider `C[n+]1cn([C@@H]2O[C@H](COP(=O)([O-])O)[C@@H](O)[C@H]2O)c2nc(NCc3ccc([N+](=O)[O-])cc3)[nH]c(=O)c21`, for which, in assay [1], the IC50 turned out to be 12.6 µM.

In the case of `CN(Cc1ccccc1)c1nc2c(c(=O)[nH]1)[n+](C)cn2[C@@H]1O[C@H](COP(=O)([O-])O)[C@@H](O)[C@H]1O`, the IC50 in assay [1] is > 50 µM.

Take `CCN(CC)c1nc2c(c(=O)[nH]1)[n+](C)cn2[C@@H]1O[C@H](COP(=O)([O-])O)[C@@H](O)[C@H]1O`: in assay [1], the IC50 is > 50 µM.

In the case of `COc1ccc(CNc2nc3c(c(=O)[nH]2)[n+](C)cn3[C@@H]2O[C@H](COP(=O)([O-])O)[C@@H](O)[C@H]2O)cc1`, in assay [1], the IC50 was determined as 0.9 µM. For the same compound, in assay [2], the Ratio IC50 was 7.
